Test results from US20230122991A1, “GROWTH FACTOR FORMULATION FOR CONDITION ASSOCIATED WITH OTIC EVENT” (OTONOMY, INC., priority 2020, published 2023).

Columns and labels:
[1] = system: Spiral ganglion neurons (SGNs); assay: Survival of spiral ganglion neurons (Example C); assay type: cell-based, rat; settings: 1 μM; compared to a vehicle-only control, 0.01% DMSO; FIG. 6C
Procedure: Spiral ganglion neurons (SGNs) were harvested from P1-P3 rates, dissociated, and cultured in 96-well plates. The SGNs were treated with neurotrophins and/or antibodies at various concentrations. After about 24 hours, media was exchanged to serum-free media and the neurotrophins and/or antibodies were replenished. Cells were cultured for an additional 48-72 hours before being fixed using 4% paraformaldehyde (PFA) and stained using 4′,6-diamidino-2-phenylindole (DAPI). […] Surviving neurons were identified as cells with intact soma and at least one neurite.

SGNs = assay: SGN complexity, dissociated SGNs (Example D); assay type: cell-based, rat; settings: differences upon treatment, FIG. 7D
Source text: SGNs were immunostained, imaged, and batch analyzed with PerkinElmer Harmony 4.6 software. Changes in the complexities of SGNs upon treatment with various agents were examined. […] All of the images in a single well were stitched together and analyzed. SGN somas are shown in the upper right panel and SGN neurites are shown in the lower left panel. As shown in the lower right panel, each neurite tree is assigned to a single cell for analysis. Depending on the stitching, occasionally neurites will not meet the criteria due to gaps that exceed a user-defined threshold.

Molecule	Survival of SGNs [1]	total neurite length, total number of extremities, segments, and nodes per cell (SGNs)
OCCN(CCO)c1ccc(C(c2ccc(Cl)cc2)c2ccc(N(CCO)CCO)cc2)cc1 [LM22b10]	not improved	–
neurotrophin-3 (protein, UniProt P20783 139-257, looked up, Neurotrophin-3) Neurotrophin-3: YAEHKSHRGEYSVCDSESLWVTDKSSAIDIRGHQVTVLGEIKTGNSPVKQYFYETRCKEARPVKNGCRGIDDKHWNSQCKTSQTYVRALTSENNKLVGWRWIRIDTSCVCALSRKIGRT	–	not statistically significant
